In patent US9539232B1, “Calebin A for osteoporosis” (priority 2016, dated 2017):

How the values were obtained:
Assay type in all cases: cell-based, mouse
RAW 264.7 cells [1] = experiment: Osteoclast differentiation assay, RANKL-induced (TRAP staining)
Description: (§1) To determine the effects of calebin A on RANKL-induced osteoclast differentiation, the RAW264.7 cells were cultured at a density of 5×10^3 cells per well in 24-well plates and allowed to adhere overnight. The medium was then replaced and the cells were treated with 5 nM RANKL for 5 days. After the incubation, the cells were subjected to TRAP staining using leukocyte acid phosphatase kit. For co-culture experiments with cancer cells, RAW 264.7 cells were seeded at a density of 5×10^3 cells per well and allowed to adhere overnight. U266 or MDA-MB-231 cells, at a density of 1×10^3 cells per well, were added to the RAW 264.7 cells the following day. The wells were treated with calebin A, and co-cultured for 5 days before being subjected to TRAP staining. For conditioned medium experiments, RAW 264.7 cells were seeded at a density of 5×10^3 cells per well and allowed to adhere overnight. The following day, the medium was replaced with ⅘ of RAW 264.7 medium (DMEM/F12) plus ⅕ of conditioned medium from MDA-MB-231 or U266 cells. For that procedure, the supernatant of cultured cancer cells that had been centrifuged was used. Finally, the RAW264.7 cells were cultured for 5 days and subjected to TRAP staining and an electrophoretic mobility shift assay (EMSA).

RAW 264.7 cells [2] = experiment: Cell proliferation assay (MTT); settings: 1, 2 or 5 mM calebin A, days 1, 3 and 5
Description: The effects of calebin A on the proliferation of RAW 264.7 cells were determined by measuring mitochondrial dehydrogenase activity with 3-[4,5-dimethylthiazol-2-yl]-2,5-diphenyl tetrazolium bromide (MTT) as the substrate as described in B. Sung, S. Prasad, V. R. Yadav, S. C. Gupta, S. Reuter, N. Yamamoto, A. Murakami, B. B. Aggarwal, PloS One 8 (2013) e64118. In brief, 3000 RAW264.7 cells (in 0.1 ml media) per well were incubated with various concentrations of calebin A, in triplicate, in 96-well plates at 37° C. for 1, 3, or 5 days. At each interval, MTT solution was added to each well, and the plates were incubated for 2 h at 37° C. An extraction buffer (100 mM) comprised of 20% sodium dodecyl sulphate (SDS) and 50% dimethyl formamide was added, and the cells were incubated overnight at 37° C. to dissolve the formazan formed during the reaction. The absorbance of the coloured product was then measured at 570 nm using a 96-well multiscanner (MRX Revelation, Dynex Technologies, Chantilly, Va.).

[3] = system: RAW 264.7 cells incubated in the presence of MDA-MB-231 cells; experiment: Osteoclastogenesis induced by co-culture with MDA-MB-231 breast cancer cells (TRAP staining); settings: calebin A 5 mM, co-incubated 5 days
Description: as §1

[4] = system: RAW 264.7 cells incubated in the presence of U266 cells; experiment: Osteoclastogenesis induced by co-culture with U266 multiple myeloma cells (TRAP staining); settings: calebin A 5 mM, co-incubated 5 days
Description: as §1

NF-κB activation = experiment: Electrophoretic mobility shift assay for NFκB
Description: To assess NFκB activation in the nuclear extracts, EMSA was carried out using the procedure described by Y. Li, S. Li, Y. Han, J. Liu, J. Zhang, F. Li, Y. Wang, X. Liu, L. Yao, Eur. J. Pharmacol. 591 (2008) 252-258. In brief, nuclear extracts from untreated and RANKL-treated RAW 264.7 cells were incubated with the 32P-end-labeled 45-mer double-stranded NFκB oligonucleotide ([…] protein with 16 fM DNA) from the HIV long terminal repeat, 5′-[…]-3′(boldface indicates NFκB binding sites), for 30 min at 37° C. The DNA-protein complex formed was separated from free oligonucleotides on 6.6% native polyacrylamide gels. The dried gels were visualized with a Storm 820 molecular imager (Amersham, Piscataway, N.J., USA), and radioactive bands were quantified using a densitometer and Image Quant software ([…]).

IκBα = experiment: Western blot for IκBα degradation and phosphorylation
Description: (§2) To determine protein expression levels, the cytoplasmic and whole cell extracts were prepared and were fractionated using 10% sodium dodecyl sulphate polyacrylamide gel electrophoresis (SDSPAGE). After electrophoresis, the proteins were transferred to nitrocellulose membranes, blotted with the relevant antibodies, and detected with enhanced chemiluminescence reagent (GE Healthcare, Piscataway, N.J.).

ERK1/2 phosphorylation = experiment: Western blot for phospho-ERK1/2; settings: calebin A pretreatment 8 h, RANKL 10 nM
Description: as §2

[5] = system: p65 transfected RAW 264.7 cells; experiment: RANKL-induced osteoclastogenesis after transfection of p65 plasmid; settings: 5 mM calebin A, 5 nM RANKL, 5 days
Description: To determine the role of NF-κB/p65 expression on calebin A-induced inhibition osteoclastogenesis, RAW 264.7 cells (5×10^5 cells/well) were plated in 6-well plates and transiently transfected by the calcium phosphate method with pNF-κB ([…]) and control plasmid pCMVFLAG1 DNA for 24 h. The medium was then replaced, and the cells were treated with RANKL (5 nM) and or calebin A (5 mM) for 5 days. All cells were subjected to TRAP staining using the leukocyte acid phosphatase kit.

[6] = system: RANK and c-Fms expression; experiment: Immunoblot for M-CSF-induced osteoclast differentiation markers; settings: 50 mM calebin A 8 h, 20 ng/mL M-CSF 24 h
Description: as §2
Further to examine the possible role of calebin A in the regulation of osteoclast differentiation in early stage, the RAW 264.7 cells were pre-treated with calebin A and induced by M-CSF for 24 h.

[7] = system: NFATc1, TRAP, cathepsin K and calcitonin R expression; experiment: Western blot for RANKL-induced osteoclastogenesis-related marker expression
Description: as §2
NFATc1 plays a major role in the regulation of osteoclastogenesis. […] Basically, activation and nuclear translocation of NFATc1 and osteoclast differentiation are mediated by the expression of large number of marker genes, including TRAP, cathepsin K and calcitonin R, regulated by NFATc1. These genes are activated by the RANKL-mediated signalling pathway. Therefore, the effect of calebin A on the expression of RANKL-induced osteoclastogenesis related marker genes, were also examined.

[8] = calebin A 5 mM, measured on day 5

COc1cc(/C=C/C(=O)COC(=O)/C=C/c2ccc(O)c(OC)c2)ccc1O [Calebin A]
Number of TRAP-positive osteoclasts, time course (RAW 264.7 cells [1]; RANKL 5 nM plus calebin A for 3, 4 or 5 days): decreased the number of TRAP-positive osteoclasts in a dose-dependent manner
Osteoclast formation, calebin A added 1-2 days after RANKL stimulation (RAW 264.7 cells [1]; [8]): substantially inhibited osteoclast formation
Osteoclast formation, calebin A added at days 3 and 4 after RANKL exposure (RAW 264.7 cells [1]; [8]): no longer prevented osteoclast formation
Inhibition of TRAP-positive osteoclast number at highest dose (RAW 264.7 cells [1]; dose of 5 mM, all time points (3, 4, 5 days)): strongest inhibition
Proliferation of RAW 264.7 cells (MTT) (RAW 264.7 cells [2]): did not significantly affect the proliferation of RAW 264.7 cells
MDA-MB-231 cell-induced differentiation of RAW264.7 cells into osteoclasts [3]: inhibited this differentiation
U266 cell-induced differentiation of RAW264.7 cells into osteoclasts [4]: A similar pattern was observed
NF-κB activation without RANKL (EMSA) (NF-κB activation; 50 mM calebin A without RANKL for 8 h): No effect on the activation of NF-κB
RANKL-induced NF-κB activation (EMSA), dose dependence (NF-κB activation; dose of 50 mM, 8 h pretreatment, RANKL 30 min): completely suppressed NF-κB activation
RANKL-induced NF-κB activation (EMSA) (NF-κB activation; pretreated with various concentrations for 8 h or 50 mM for various times, then RANKL 10 nM 30 min): completely abrogated RANKL-induced NF-κB activation
IκBα phosphorylation at serines 32 and 36 induced by RANKL and ALLN co-treatment (IκBα; 50 mM calebin A 8 h, ALLN 30 min, RANKL 10 nM 15 min): inhibited the induction of phosphorylation
RANKL-induced IκBα degradation (cytoplasmic, western blot) (IκBα; 50 mM calebin A 8 h pretreatment, 10 nM RANKL): complete inhibition of IκBα degradation
IκBα phosphorylation by calebin A alone (IκBα; calebin A alone, no RANKL): did not induce phosphorylation of IκBα
RANKL-induced IκBα phosphorylation (IκBα; calebin A pretreatment (8 h), 10 nM RANKL): phosphorylation was completely inhibited
RANKL-induced ERK1/2 phosphorylation (ERK1/2 phosphorylation): did not inhibit the RANKL-induced activation of ERK phosphorylation
RANKL induced osteoclastogenesis in cells transfected with control plasmid [5]: almost completely inhibited
RANKL induced osteoclastogenesis in p65 transfected RAW 264.7 cells [5]: minimally inhibited
M-CSF-induced expression of RANK [6]: downmodulate M-CSF-induced expression of RANK
c-Fms expression [6]: no significant variation
RANKL-induced NFATc1, TRAP, cathepsin K and calcitonin R expression ([7]; 50 mM calebin A 8 h, 10 nM RANKL 24 h): inhibits the RANKL-induced NFATc1, TRAP, cathepsin K and calcitonin R expression
RANKL-induced NFATc1 expression ([7]; 50 mM calebin A 8 h pretreatment, 10 nM RANKL 24 h): abolished the RANKL-induced NFATc1 expression
Expression of TRAP, cathepsin K and calcitonin R with calebin A alone ([7]; calebin A alone, no RANKL): no effect of calebin A alone
